The results in this text go back to the supplement of paper PMC10307832.

Holding throughout (assay): relative viability (nuclei count vs DMSO), 5 days (fraction); higher = more cells survive
Compound in assay [1]: CCCS(=O)(=O)Nc1ccc(F)c(C(=O)c2c[nH]c3ncc(-c4ccc(Cl)cc4)cc23)c1F [Vemurafenib] + CS(=O)(=O)N1CCN(Cc2cc3nc(-c4cccc5[nH]ncc45)nc(N4CCOCC4)c3s2)CC1 [Pictilisib] (partner 1 µM)
The method in brief:
(§1)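 Values are medians from duplicate plates. Each reflects relative viability, defined as the nuclei count of treated wells over that of vehicle wells. Lung cancer cell lines in 1536-well plates were pin-tool dosed one day after seeding with one drug alone or with a fixed anchor-drug dose plus five library-drug doses (not always all listed) in √10 steps, then fixed, stained and imaged at 4× after 5 days.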

Compound in assay [2]: CCCS(=O)(=O)Nc1ccc(F)c(C(=O)c2c[nH]c3ncc(-c4ccc(Cl)cc4)cc23)c1F [Vemurafenib] + Nc1nc2[nH]cc(CCc3ccc(C(=O)N[C@@H](CCC(=O)O)C(=O)O)cc3)c2c(=O)[nH]1 [Pemetrexed] (partner 0.2 µM)
Put shortly:
as §1

Compound in assay [3]: COc1cccc2cc(-c3nc([C@H]4CC[C@H](C(=O)O)CC4)n4ncnc(N)c34)[nH]c12 [OSI-027] + CCNC(=O)c1noc(-c2cc(C(C)C)c(O)cc2O)c1-c1ccc(CN2CCOCC2)cc1 [Luminespib] (partner 0.01 µM)
Put shortly: as §1

Compound in assay [4]: Cc1nc(NC(=O)N2CCC[C@H]2C(N)=O)sc1-c1ccnc(C(C)(C)C(F)(F)F)c1 [Alpelisib] + COc1cc2c(Oc3ccc(NC(=O)C4(C(=O)Nc5ccc(F)cc5)CC4)cc3F)ccnc2cc1OCCCN1CCOCC1 [Foretinib] (partner 0.25 µM)
The method in brief: as §1

201T: the relative viability in assay [1] (first compound 0.03162 µM) was found to be 0.651; in assay [1] (first compound 0.1 µM), 0.67; in assay [1] (first compound 0.3162 µM), 0.702; in assay [1] (first compound 1 µM), 0.677; in assay [2] (first compound 0.03162 µM), 0.375; in assay [2] (first compound 0.1 µM), 0.378. The relative viability was found to be 0.322 in assay [2] (first compound 0.3162 µM); 0.283 in assay [2] (first compound 1 µM); 1.09 in assay [3] (first compound 0.01 µM); 1.06 in assay [3] (first compound 0.03162 µM); 1 in assay [3] (first compound 0.1 µM); 0.948 in assay [3] (first compound 0.3162 µM). The relative viability in assay [3] (first compound 1 µM) was determined as 0.485; in assay [4] (first compound 0.04 µM), 1.11; in assay [4] (first compound 0.1265 µM), 1.06; in assay [4] (first compound 0.4 µM) it was 1.29; in assay [4] (first compound 1.265 µM) it was 0.841; in assay [4] (first compound 4 µM) it was 0.71.

Take NCI-H2405: the relative viability came to 0.347 in assay [1] (first compound 0.03162 µM); 0.467 in assay [1] (first compound 0.1 µM); 0.48 in assay [1] (first compound 1 µM); 1.02 in assay [2] (first compound 0.03162 µM); 0.977 in assay [2] (first compound 0.1 µM); 1.17 in assay [2] (first compound 1 µM). Moreover, the relative viability in assay [3] (first compound 0.01 µM) came out at 0.678; in assay [3] (first compound 0.03162 µM), 0.647; in assay [3] (first compound 0.1 µM), 0.559; in assay [3] (first compound 0.3162 µM), 0.479; in assay [3] (first compound 1 µM), 0.443; in assay [4] (first compound 0.04 µM) it was 1.1. Moreover, the relative viability in assay [4] (first compound 0.1265 µM) stood at 1; in assay [4] (first compound 0.4 µM), 1.1; in assay [4] (first compound 1.265 µM) it was 0.849; in assay [4] (first compound 4 µM), 0.711.

RERF-LC-KJ: the relative viability in assay [1] (first compound 0.03162 µM) came to 0.838; in assay [1] (first compound 0.1 µM), 0.464; in assay [1] (first compound 0.3162 µM) it was 0.707; in assay [1] (first compound 1 µM) it was 0.597; in assay [2] (first compound 0.03162 µM), 0.501; in assay [2] (first compound 0.1 µM), 0.486. The relative viability stood at 0.441 in assay [2] (first compound 0.3162 µM); 0.48 in assay [2] (first compound 1 µM); 1.41 in assay [3] (first compound 0.01 µM); 1.09 in assay [3] (first compound 0.03162 µM); 1.08 in assay [3] (first compound 0.1 µM); 1.09 in assay [3] (first compound 0.3162 µM). Further, the relative viability in assay [3] (first compound 1 µM) amounted to 0.459; in assay [4] (first compound 0.04 µM), 0.779; in assay [4] (first compound 0.1265 µM), 0.773; in assay [4] (first compound 0.4 µM), 0.893; in assay [4] (first compound 1.265 µM) it was 0.716; in assay [4] (first compound 4 µM) it was 0.696.

Regarding NCI-H596, the relative viability is 0.352 in assay [1] (first compound 0.03162 µM); 0.356 in assay [1] (first compound 0.1 µM); 0.429 in assay [1] (first compound 0.3162 µM); 0.388 in assay [1] (first compound 1 µM); 0.501 in assay [2] (first compound 0.03162 µM); 0.494 in assay [2] (first compound 0.1 µM). Besides, the relative viability in assay [2] (first compound 0.3162 µM) is 0.405; in assay [2] (first compound 1 µM), 0.583; in assay [3] (first compound 0.01 µM), 0.96; in assay [3] (first compound 0.03162 µM), 0.908; in assay [3] (first compound 0.1 µM), 0.988; in assay [3] (first compound 0.3162 µM), 0.851. For the same cell line, the relative viability was 0.574 in assay [3] (first compound 1 µM); 0.769 in assay [4] (first compound 0.04 µM); 0.677 in assay [4] (first compound 0.1265 µM); 0.731 in assay [4] (first compound 0.4 µM); 0.457 in assay [4] (first compound 1.265 µM); 0.431 in assay [4] (first compound 4 µM).

Turning to NCI-H1993, the relative viability in assay [1] (first compound 0.03162 µM) was found to be 0.767; in assay [1] (first compound 0.3162 µM) it was 0.801; in assay [1] (first compound 1 µM), 0.831; in assay [2] (first compound 0.03162 µM), 0.67; in assay [2] (first compound 0.3162 µM), 0.642; in assay [2] (first compound 1 µM), 0.628. Moreover, the relative viability amounted to 0.815 in assay [3] (first compound 0.01 µM); 0.795 in assay [3] (first compound 0.03162 µM); 0.71 in assay [3] (first compound 0.1 µM); 0.498 in assay [3] (first compound 0.3162 µM); 0.548 in assay [3] (first compound 1 µM); 0.737 in assay [4] (first compound 0.04 µM). Besides, the relative viability was 0.697 in assay [4] (first compound 0.1265 µM), 0.771 in assay [4] (first compound 0.4 µM), 0.544 in assay [4] (first compound 1.265 µM) and 0.55 in assay [4] (first compound 4 µM).

Turning to EPLC-272H, the relative viability in assay [1] (first compound 0.03162 µM) turned out to be 0.277; in assay [1] (first compound 0.1 µM), 0.278; in assay [1] (first compound 0.3162 µM), 0.295; in assay [1] (first compound 1 µM), 0.336; in assay [2] (first compound 0.03162 µM), 0.319; in assay [2] (first compound 0.1 µM), 0.336. Further, the relative viability in assay [2] (first compound 0.3162 µM) is 0.396; in assay [2] (first compound 1 µM), 0.328; in assay [3] (first compound 0.01 µM), 0.38; in assay [3] (first compound 0.03162 µM), 0.267; in assay [3] (first compound 0.1 µM), 0.147; in assay [3] (first compound 0.3162 µM), 0.2. In addition, the relative viability in assay [3] (first compound 1 µM) came to 0.228; in assay [4] (first compound 0.04 µM), 0.723; in assay [4] (first compound 0.1265 µM) it was 0.674; in assay [4] (first compound 0.4 µM), 0.754; in assay [4] (first compound 1.265 µM), 0.376; in assay [4] (first compound 4 µM), 0.422.
